Among the test systems are IGROV-1; HL-60; A549; SK-MEL-2; NCI-H522; SNB-75; COLO 205; TK-10; SW-620; UACC-257; SF-268; HOP-62; SK-MEL-5; RPMI-8226; SK-OV-3.
What all share (assay): NCI tumour cell line growth inhibition, 48 h

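These data come from cells grown in 96-well plates and exposed to compound for 48 hours at five concentrations. GI50 = concentration required for 50% inhibition of growth.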 Activity calls are given as the source filed them. Cut-off read from the data, not from the text of the source: active = GI50 up to about 1.1 µM and inactive = higher.

For the compound `COc1ccc(OC)c(-c2cc(O)c3cc4c(cc3n2)OCO4)c1`, the GI50 with IGROV-1 was 10.5 µM (inactive); with HL-60 it was 2.96 µM (inactive); in the assay on A549 it was 5.87 µM (inactive); in the assay on SK-MEL-2 it was 4.1 µM (inactive); with NCI-H522, 2.85 µM (inactive); in the assay with SNB-75 it was 3.44 µM (inactive). Further, the GI50 with COLO 205 is 2.65 µM (inactive); in the assay with TK-10 it was 11 µM (inactive); in the assay with SW-620 it was 3.83 µM (inactive); in the assay on UACC-257, 7.69 µM (inactive); in the assay with SF-268, 7.74 µM (inactive); with HOP-62, 13.9 µM (inactive). Moreover, the GI50 with SK-MEL-5 is 2.98 µM (inactive); in the assay on RPMI-8226, 4.18 µM (inactive); in the assay with SK-OV-3, 3.49 µM (inactive).

For `Oc1cc(-c2cccs2)nc2cc3c(cc12)OCO3`, the GI50 with IGROV-1 is 3.37 µM (inactive); in the assay with HL-60, 4.37 µM (inactive); in the assay with A549, 4.9 µM (inactive); with SK-MEL-2 it was 4.99 µM (inactive); with NCI-H522 it was 2.05 µM (inactive); with SNB-75, 1.41 µM (inactive). Further, the GI50 with COLO 205 is 9.06 µM (inactive); in the assay on TK-10, 21.3 µM (inactive); in the assay on SW-620 it was 3.03 µM (inactive); in the assay with UACC-257, 3.72 µM (inactive); in the assay on SF-268, 6.43 µM (inactive); with HOP-62, 3.96 µM (inactive). For the same compound, the GI50 in the assay on SK-MEL-5 was 1.75 µM (inactive); in the assay with RPMI-8226, 6.32 µM (inactive); in the assay on SK-OV-3, 2.7 µM (inactive).

On to `COc1cc(C2=NN(C)C(c3ccc([N+](=O)[O-])o3)C2)cc(OC)c1OC` (stereo not given), for which the GI50 with IGROV-1 is > 100 µM (inactive); in the assay on HL-60, 18.2 µM (inactive); in the assay on A549 it was > 100 µM (inactive); in the assay with SK-MEL-2 it was > 100 µM (inactive); in the assay on NCI-H522, 43.7 µM (inactive); in the assay on SNB-75, 83.2 µM (inactive). The GI50 in the assay with COLO 205 was 36.9 µM (inactive); with TK-10, > 100 µM (inactive); in the assay with SW-620, 11 µM (inactive); with UACC-257, > 100 µM (inactive); with SF-268, > 100 µM (inactive); with HOP-62, > 100 µM (inactive). Also, the figures for the GI50 in the assay on SK-MEL-5, in the assay with RPMI-8226 and in the assay on SK-OV-3 were > 100 µM (inactive), 1.78 µM (inactive) and > 100 µM (inactive), respectively.

Turning to `CCSc1nc2sc(C)c(C)c2c(=O)n1-c1ccc(C(=O)O)cc1`, the GI50 in the assay on IGROV-1 is 90.8 µM (inactive); in the assay on HL-60, 35.3 µM (inactive); in the assay with A549 it was 65.3 µM (inactive); with SK-MEL-2 it was > 100 µM (inactive); with NCI-H522 it was 23.2 µM (inactive); with SNB-75 it was 13.6 µM (inactive). For the same compound, the GI50 in the assay with COLO 205 is > 100 µM (inactive); with TK-10 it was > 100 µM (inactive); in the assay on SW-620, > 100 µM (inactive); with UACC-257, 98.4 µM (inactive); in the assay on SF-268 it was 27.2 µM (inactive); in the assay with HOP-62, 88.5 µM (inactive). Further, the figures for the GI50 in the assay with SK-MEL-5, in the assay on RPMI-8226 and in the assay on SK-OV-3 were 49 µM (inactive), 34.1 µM (inactive) and > 100 µM (inactive), respectively.

Take `CC1=C(C(=O)Nc2ccc([N+](=O)[O-])cc2)C(c2ccccc2O)C(C(=O)Nc2ccc([N+](=O)[O-])cc2)=C(C)N1`: the GI50 in the assay on IGROV-1 was 25.9 µM (inactive); in the assay with HL-60 it was 19.2 µM (inactive); in the assay on A549, 28.2 µM (inactive); in the assay on SK-MEL-2, 15.6 µM (inactive); with NCI-H522 it was 15 µM (inactive); with SNB-75 it was 25.8 µM (inactive). In addition, the GI50 in the assay with COLO 205 was 17.5 µM (inactive); in the assay with TK-10 it was 44.7 µM (inactive); in the assay with SW-620, 29.2 µM (inactive); in the assay with UACC-257 it was 21.7 µM (inactive); in the assay with SF-268, 19.1 µM (inactive); with HOP-62 it was 14.1 µM (inactive). Moreover, the GI50 is 16.4 µM (inactive) with SK-MEL-5, 17.6 µM (inactive) in the assay with RPMI-8226 and 21.1 µM (inactive) in the assay on SK-OV-3.

For the compound `COc1c(OC(C)=O)cc2c(OC(C)=O)c1CC(C)CC(OC)C(O)C(C)/C=C(\C)C(OC(N)=O)C(OC)/C=C\C=C(/C)C(=O)N2` (stereo not given), the GI50 was > 100 µM (inactive) with IGROV-1; > 41.5 µM (inactive) in the assay with HL-60; > 71.3 µM (inactive) in the assay with A549; > 100 µM (inactive) in the assay on SK-MEL-2; 10.7 µM (inactive) with NCI-H522; > 100 µM (inactive) with SNB-75. Moreover, the GI50 is 5.77 µM (inactive) with COLO 205; > 81.8 µM (inactive) with TK-10; 24 µM (inactive) in the assay with SW-620; > 100 µM (inactive) with UACC-257; > 100 µM (inactive) in the assay with SF-268; > 100 µM (inactive) in the assay with HOP-62. The GI50 is > 100 µM (inactive) with SK-MEL-5, > 54.5 µM (inactive) with RPMI-8226 and > 100 µM (inactive) in the assay on SK-OV-3.

Take `Cc1cc(C)c(C(=O)O)c(N)c1O`: the GI50 in the assay on IGROV-1, with HL-60, in the assay on A549, in the assay on SK-MEL-2, in the assay on NCI-H522 and with SNB-75 was > 100 µM (inactive) in each case. Besides, the GI50 in the assay on COLO 205, in the assay with TK-10, with SW-620, with UACC-257, in the assay on SF-268 and with HOP-62 was > 100 µM (inactive) each time. Also, the GI50 in the assay on SK-MEL-5, with RPMI-8226 and in the assay with SK-OV-3 was > 100 µM (inactive) in each case.

`COc1cc([C@@H]2c3cc4c(cc3[C@@H](NCc3ccc(C#N)cc3)C3COC(=O)[C@@H]32)OCO4)cc(OC)c1O` (stereo not given in full): the GI50 is 1.15 µM (inactive) in the assay with IGROV-1; 0.116 µM (active) in the assay on HL-60; 0.0923 µM (active) in the assay with A549; 3.27 µM (inactive) with SK-MEL-2; 1.09 µM (active) in the assay with NCI-H522; 0.628 µM (active) with SNB-75. Besides, the GI50 with COLO 205 was 0.948 µM (active); with TK-10, 1.84 µM (inactive); in the assay on SW-620, 0.766 µM (active); in the assay with UACC-257, 4.76 µM (inactive); in the assay on SF-268, 1.25 µM (inactive); in the assay on HOP-62, 0.31 µM (active). For the same compound, the GI50 in the assay on SK-MEL-5 was 1.5 µM (inactive); with RPMI-8226, 0.993 µM (active); in the assay with SK-OV-3 it was 0.989 µM (active).

For the compound `CCOC(=O)/C(C#N)=C/c1[nH]c(C)c(C)c1C`, the GI50 in the assay on IGROV-1, in the assay on HL-60, in the assay on A549, with SK-MEL-2, with NCI-H522 and in the assay on SNB-75 was > 100 µM (inactive) each time. Also, the GI50 in the assay on COLO 205, in the assay on TK-10, in the assay on SW-620, in the assay on UACC-257, in the assay on SF-268 and in the assay with HOP-62 was > 100 µM (inactive) throughout. The GI50 in the assay with SK-MEL-5, in the assay on RPMI-8226 and in the assay with SK-OV-3 was > 100 µM (inactive) in each case.

With `COc1ccc(NC(=O)CC(=O)NN2C(=O)/C(=C/c3ccc(N(CCC#N)CCC#N)cc3C)N=C2/C=C\c2ccccc2)cc1`, the GI50 in the assay with IGROV-1 was > 100 µM (inactive); in the assay with HL-60 it was > 100 µM (inactive); in the assay on A549, > 100 µM (inactive); in the assay with SK-MEL-2, > 100 µM (inactive); in the assay with NCI-H522 it was > 100 µM (inactive); in the assay on SNB-75 it was 59.3 µM (inactive). In addition, the GI50 in the assay with COLO 205, in the assay with TK-10, with SW-620, in the assay with UACC-257, in the assay on SF-268 and in the assay on HOP-62 was > 100 µM (inactive) each time. Besides, the GI50 in the assay on SK-MEL-5, with RPMI-8226 and with SK-OV-3 was > 100 µM (inactive) in each case.

On to `COc1ccc(OC)c(NC(=O)CCC/C(CC(=O)c2ccc(O)c(OC)c2)=N\Nc2nnc(C)n2N)c1`, for which the GI50 with IGROV-1 is > 100 µM (inactive); in the assay on HL-60, 90.2 µM (inactive); in the assay on A549, > 100 µM (inactive); in the assay on SK-MEL-2 it was > 100 µM (inactive); in the assay with NCI-H522, > 100 µM (inactive); with SNB-75, 37.9 µM (inactive). The GI50 in the assay on COLO 205, with TK-10, in the assay on SW-620, in the assay with UACC-257, in the assay on SF-268 and in the assay on HOP-62 was > 100 µM (inactive) each time. In addition, the GI50 in the assay with SK-MEL-5, in the assay on RPMI-8226 and in the assay on SK-OV-3 was > 100 µM (inactive) each time.

With `CCOCc1cc(=O)c2cc3c(cc2o1)OC(C)(C)CC3`, the GI50 is > 100 µM (inactive) in the assay with IGROV-1; 61.2 µM (inactive) with HL-60; > 100 µM (inactive) in the assay on A549; > 100 µM (inactive) with SK-MEL-2; > 100 µM (inactive) in the assay on NCI-H522; > 100 µM (inactive) in the assay with SNB-75. The GI50 with COLO 205 was > 100 µM (inactive); in the assay with TK-10, > 100 µM (inactive); in the assay with SW-620, > 100 µM (inactive); with UACC-257 it was 65.3 µM (inactive); with SF-268, > 100 µM (inactive); in the assay with HOP-62, > 100 µM (inactive). The GI50 is 56.6 µM (inactive) with SK-MEL-5, 91.4 µM (inactive) in the assay with RPMI-8226 and > 100 µM (inactive) with SK-OV-3.

Take `CS(=O)(=O)OCCn1cnc2nc(NC(=O)c3ccccc3)[nH]c(=O)c21`: the GI50 with IGROV-1, with HL-60, in the assay on A549, in the assay on SK-MEL-2, with NCI-H522 and with SNB-75 was > 100 µM (inactive) each time. In addition, the GI50 in the assay on COLO 205, in the assay on TK-10, in the assay on SW-620, in the assay with UACC-257, with SF-268 and with HOP-62 was > 100 µM (inactive) in each case. Besides, the GI50 with SK-MEL-5, in the assay on RPMI-8226 and with SK-OV-3 was > 100 µM (inactive) each time.
